# Data reported in PMC5938390, “Tachyplesin Causes Membrane Instability That Kills Multidrug-Resistant Bacteria by Inhibiting the 3-Ketoacyl Carrier Protein Reductase FabG” (Frontiers in Microbiology, 2018).
# Positions of bridges follow the written chain, without caps; N, C: chain ends. Residues, ends and D or L forms follow the SMILES beside them.
# Assays:
# [1] = system: Escherichia coli strain DH5α; assay: Stability in sterile deionized water, read out as MIC against DH5α; format: physicochemical; conditions: 37°C, 2 mg/ml, stability judged by MIC against DH5α
# Description: These studies were carried out as we previously reported with slight modifications and briefly introduced as follows ([Liu et al., 2017]). […] Cytotoxicity in different cell lines was assessed using the Cell Proliferation Kit II (XTT) (Roche), and cytotoxicity in hemocytes was evaluated by the increase in the absorbance at 540 nm after peptide incubation. Membrane rupture was indicated by the entrance of the DNA-binding fluorescent dye PI into MDR clinical isolates of P. aeruginosa strain 1409. Membrane translocation of N-terminal FITC-conjugated tachyplesin III (purity ≥ 95%, synthesized by GL Biochem Co., Ltd, Shanghai, China) into MDR clinical isolates of Acinetobacter baumannii strain 1408 were detected by confocal laser-scanning microscopy.
# Tachyplesin III (2 mg/ml) was incubated in either sterile deionized water or mouse serum at 37°C for various lengths of time, aliquots were taken, and MICs against DH5α cells were tested. Stability of the MIC indicates the stability of tachyplesin III.
# [2] = system: K. pneumoniae 5; assay: MIC against clinical isolate; format: cell-based, Klebsiella pneumoniae
# [3] = system: E. coli 513; assay: Transcriptome analysis (RNA sequencing, FPKM, DESeq); format: cell-based, Escherichia coli; conditions: Ec; Ta 16 μg/ml, 30 min, 37°C
# Description: The Vitek 32 system (bioMerieux, France) and 16S rDNA sequencing were used to verify the clinical isolates A. baumannii 1408, P. aeruginosa 1409, Klebsiella pneumoniae 5 and E. coli 513, which were grown overnight in Luria-Bertani (LB) medium at 37°C with constant shaking at 220 rpm to reach the middle of their logarithmic growth phase. […] After the addition of 2 volumes of RNAprotect Bacteria Reagent (QIAGEN) to stabilized RNA, samples were vortexed for 5 s, incubated for 5 min at room temperature (15–25°C) and collected by centrifugation at 4°C for 5 min at 4000 g.
# RNA isolation and sequencing were performed by Novogene Bioinformatics Technology Co., Ltd. (Beijing, China) as previously described ([Liu B. et al., 2014]). Clean reads were mapped to the corresponding bacterial genomes using Bowtie 2 software ([Langmead and Salzberg, 2012]). Gene expression was calculated using the FPKM (expected number of fragments per kilobase of transcript sequence per millions of base pairs sequenced) method with HTSeq software (union model) ([Anders et al., 2015]). Differentially expressed genes were selected based on the DESeq R package with Padj values < 0.05 ([Anders and Huber, 2010]). KEGG pathway analysis was performed using KOBAS (2.0), and the corrected p value cut-off was set at 0.05 ([Li et al., 2015]).
# [4] = system: FabG gene; assay: FabG transcription level by quantitative real-time PCR; format: cell-based, A. baumannii, E. coli, K. pneumoniae, P. aeruginosa; conditions: all four bacteria, RNAs from transcriptome analysis (16 μg/ml, 30 min), 2^-ΔΔCT, rpsL reference
# Description: Quantitative real-time PCR (RT-PCR) was performed following the 2^-ΔΔCT method with RNAs from the aforementioned transcriptome analysis ([Livak and Schmittgen, 2001]; [Liu C. et al., 2014]). Untreated pathogen strains were used as the calibrator strains, and corresponding ribosomal rpsL genes were used as housekeeping reference genes with the primers shown in Supplementary Table S1 ([Dumas et al., 2006]).
# FIGURE 5 Expression of FabG increased after tachyplesin treatment. Quantitative real-time PCR was performed following the 2^-ΔΔCT method. Untreated pathogen strains were used as the calibrator strains, and the corresponding ribosomal rpsL genes were used as housekeeping reference gene with the primers shown in Supplementary Table S1.
# [5] = molecular target: T1, FabG from S. aureus (Staphylococcus aureus, UniProt P0A0H9); assay: FabG enzyme activity inhibition assay (NADPH consumption, A340); format: biochemical; conditions: higher concentrations (7.5 and 15 μM) of peptide, 6 μM FabG, 5 min, room temperature
# T1 construct: His tag (C); made in house; host or cells: E. coli BL21 DE3 (vector pET28a)
# T1 sequence (P0A0H9 1-246): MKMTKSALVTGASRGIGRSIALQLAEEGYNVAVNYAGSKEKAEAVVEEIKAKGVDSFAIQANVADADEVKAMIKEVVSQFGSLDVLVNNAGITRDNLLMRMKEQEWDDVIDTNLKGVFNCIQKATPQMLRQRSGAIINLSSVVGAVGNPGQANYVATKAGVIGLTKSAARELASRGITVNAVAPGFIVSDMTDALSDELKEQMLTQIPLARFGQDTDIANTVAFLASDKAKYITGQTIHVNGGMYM
# Description: A 96-well plate with a final total volume of 200 μl per reaction was used for the FabG inhibition assay. Briefly, tachyplesin III (15, 7.5, and 3.75 μM) was incubated with 1.5 μM FabG from E. coli or 6 μM FabG from S. aureus at room temperature for 5 min, before the addition of 300 μM nicotinamide adenine dinucleotide phosphate (NADPH, Sigma) and then 150 μM acetoacetyl-CoA (Sigma) to initiate the reaction. The decrease in absorbance at 340 nm was recorded over 5 min to reflect the consumption of NADPH.
# FIGURE 7 Tachyplesin III binding with FabG inhibits its enzyme activities in vitro, probably by blocking the active site. Binding interactions between tachyplesin III and FabG from E. coli (A) or from S. aureus (E) were analyzed by surface plasmon resonance (SPR) with a Biocore 3000 (Biocore, Piscataway, NJ, United States). Black line: 1.25 μg/mL FabG; green line: 2.5 μg/mL FabG; purple line: 5 μg/mL FabG; and red line: 10 μg/mL FabG. […] Tachyplesin was processed with Chemdraw 11.0 according to the structure of tachyplesin I (PDB code 2RTV) and then docked to the active site of FabG from E. coli (PDB code 1Q7B) or S. aureus (PDB code 3SJ7) with AutoDock4 using the default settings. […] Statistical significance was analyzed by one-way ANOVA followed by the Newman–Keuls multiple-comparisons test, ^∗∗p < 0.01, ^∗p < 0.05.
smiles,measurement,setting,value
"CC[C@H](C)[C@@H]1NC(=O)CNC(=O)[C@H](CCCNC(=N)N)NC(=O)[C@H](Cc2ccc(O)cc2)NC(=O)[C@@H]2CSSC[C@H](NC1=O)C(=O)N[C@@H](Cc1ccc(O)cc1)C(=O)N[C@@H](CCCNC(=N)N)C(=O)N[C@@H](CCCCN)C(=O)N[C@H](C(=O)N[C@@H](CCCNC(=N)N)C(N)=O)CSSC[C@H](NC(=O)[C@H](Cc1c[nH]c3ccccc13)NC(=O)[C@@H](N)CCCCN)C(=O)N[C@@H](Cc1ccccc1)C(=O)N[C@@H](CCCNC(=N)N)C(=O)N[C@@H](C(C)C)C(=O)N2 [tachyplesin III] (H-KWCFRVCYRGICYRKCR-NH2; disulfide 3-16, 7-12 (inferred); N-terminus and C-terminus assumed)",time stable in sterile deionized water,[1],~48 h
same,16 μg/ml tachyplesin III expressed as multiple of MIC,[2],1/2
same,"Fold change after Ta treatment, gene b1093 (3-ketoacyl-acyl carrier protein reductase)",[3],1.11
same,"Fold change after Ta treatment, gene b3846 (3-hydroxyacyl-CoA dehydrogenase)",[3],2.3
same,FabG expression by quantitative real-time PCR,[4],elevations
same,FabG activity,[5],almost completely blocked
